Experimental data from patent publication US20220145264A1, “CULTURE MEDIUM FOR MAMMALIAN EXPANDED POTENTIAL STEM CELLS, COMPOSITION, AND METHODS THEREOF” (THE UNIVERSITY OF HONG KONG, priority 2019, published 2022).

Assays:
canonical Wnt signalling [1] = test: TOPflash luciferase assay in porcine EPSCs; assay type: cell-based
Experimental: (§1) For the TOPflash assay, 2.0×10^6 cells were transfected with 10 μg TOPflash plasmid. 5 μg pRL-TK (Renilla) vectors were also transfected for normalization. Cells were split 1:9 into a 24-well plate in pEPSCM and hEPSCM with or without XAV939 (WNTi, 2.5 μM, Cat. No. X3004) for 48 h. Cell lysates were collected for luciferase assays. For determining the regulation pattern of Oct4 expression in porcine EPSCs, 10 μg reporter constructs were electroporated into 1.5×10^6 pEPSCs with 5 μg pRL-TK. Assays were performed 48 h later. All luciferase assays were performed using the Dual-Glo Luciferase Assay System (Promega, Cat. No. E2920).

AXIN1 [2] = test: Western blot analysis of AXIN1 in porcine EPSCs; assay type: cell-based
Experimental: (§2) Whole-cell extracts were prepared from cells with indicated treatments in lysis buffer composed of 50 mM Tris-HCl (pH 7.5), 0.15M NaCl, 0.1% SDS, 1% Triton X-100, 1% sodium deoxycholate and complete mini EDTA free protease inhibitor cocktail (Roche Applied Science, Cat. No. 11836170001). The cells for the experiment were collected from the same batch of culture when the culture had reached 70-80% confluence. The biological replicates were included to allow the meaningful conclusions. 10 μg protein were used for electrophoresis and transferred to nitrocellulose membranes. Membranes were blocked with 5% milk and treated with antibodies. Primary antibodies of mouse or rabbit anti AXIN1, SMAD2/3, p-SMAD2/3 and ALPHA-TUBULIN were used. Horseradish peroxidase-conjugated secondary antibodies against rabbit or mouse IgG were added. After antibody treatment, blots were developed using ECL Western Blotting Detection System (Thermo Fisher Scientific, Cat. No. 32106). The antibodies used in these experiments is provided in Supplementary Table 9.

pEPSCs^Emb = test: Requirement of individual culture components for pEPSCs (RT-qPCR, AP+ colony formation); assay type: cell-based, porcine; conditions: withdrawal from medium, porcine EPSCs
Experimental: (§3) Porcine and human EPSC cultures were routinely maintained on STO feeders. STO feeder plates were prepared 3-4 days before passaging by thawing and plating the mitomycin C inactivated STO cells on 0.1% gelatinised plates at the density of ˜1.1×10^4 cells/cm^2. Porcine/human EPSC cells were maintained on STO feeder layers and enzymatically passaged every 3-5 days by a brief PBS wash followed by treatment for 3-5 minutes with 0.25% trypsin/EDTA (Gibco, Cat. No. 25500-054). The cells were dissociated and centrifuged (300 g×5 minutes) in M10 medium. M10: knockout DMEM (Gibco, Cat. No. 10829-018), 10% FBS (Gibco, Cat. No. 10270), 1× Glutamine Penicillin-Streptomycin (Thermo Fisher Scientific, Cat. No. 11140050) and 1×NEAA (Thermo Fisher Scientific, Cat. No. 10378-016). After removing supernatant, the porcine/human EPSCs were re-suspended and seeded in pEPSCM/hEPSCM supplemented with 5 μM ROCK inhibitor Y-27632 (Tocris, Cat. No. 1254). 5% FBS (Gibco, Cat. No. 10270) and 10% KnockOut Serum Replacement (KSR) (Gibco, Cat. No. 10828028) were added in pEPSCM and hEPSCM respectively to improve cells survive. 12-24 hours later, medium was switched to pEPSCM/hEPSCM only. Both pEPSCM and hEPSCM are N2B27 based media. N2B27 basal media (500 ml) was prepared by inclusion of the following components: 482.5 ml DMEM/F-12 (Gibco, Cat. No. 21331-020), 2.5 ml N2 supplement (Thermo Fisher Scientific, Cat. No. 17502048), 5 ml B27 supplement (Thermo Fisher Scientific, Cat. No. 17504044), 5 ml 1× Glutamine Penicillin-Streptomycin (Thermo Fisher Scientific, Cat. No. 11140-050), and 5 ml 1×NEAA (Thermo Fisher Scientific, Cat. No. 10378-016), 0.1 mM 2-mercaptoethanol (Sigma, Cat. No. M6250). pEPSCM (500 ml) was generated by adding the following small molecules and cytokines into 500 ml N2B27 basal media: 0.2 μM CHIR99021(GSK3i, TOCRIS, Cat. No. 4423), 1 μM WH-4-023 (SRC inhibitor, TOCRIS, Cat. No. 5413), 2.5 μM XAV939 (Sigma, Cat. No. X3004) or 2.5 μM IWR-1 (TOCRIS, Cat. No. 3532), […] Vitamin C (Sigma, Cat. No. 49752-100G), 10 ng/ml LIF (Stem Cell Institute, University of Cambridge. SCI) and 20 ng/ml ACTIVIN (SCI). hEPSCM (500 ml) was generated by adding the following components into 500 ml N2B27 basal media: 1.0 μM CHIR99021(GSK3 inhibitor, TOCRIS, Cat. No. 4423), 0.5 μM A-419259 (SRC inhibitor, TOCRIS, Cat. No. 3914), 2.5 μM XAV939 (Sigma, Cat. No. X3004), […] Vitamin C (Sigma, Cat. No. 49752-100G), 10 ng/ml LIF (SCI). Although both targeting SRC family kinases (SFKs), WH-4-023 and A419259 were preferred for porcine and human EPSCs, respectively. […] The concentrations of CHIR99021 for porcine and human EPSC cultures are 0.2 μM and 1.0 μM, respectively. […] 0.25 μM SB 590885 (BRAF inhibitor, R&D, Cat. No. 2650) and 2.0 μM SP600125 ([…], TOCRIS, Cat. No. 1496) were included to improve porcine and human EPSC cultures, but they were not essential for the routine maintenance of porcine and human EPSCs. All cell cultures in this paper were performed under conditions of 37° C. and 5% CO2 unless stated otherwise.
(§4) Total RNA was isolated using an RNeasy Mini Kit (Qiagen, Cat. No. 74106) for cultured cells or RNeasy Micro Kit (Qiagen, Cat. No. 74034) for sorted NANOS3-mCherry^+ cells. RNA was subsequently quantified and treated with gDNA WipeOut to remove genomic DNA. Complementary DNA (cDNA) was prepared using a QuantiTect Reverse Transcription Kit (Qiagen, Cat. No. 205311). RT-qPCR primers or TaqMan Gene Expression Assays (Life Technologies) are listed in Supplementary Table 10 and 11. ABsolute Blue qPCR ROX Mix (ABgene, Cat. No. AB4138B) were used for probe based qPCR assays and SYBR Green ROX qPCR Mastermix (Qiagen, Cat. No. 330523) were used for primer based qPCR assays. All qPCR reactions were performed on ABI 7900 HT Sequence Detection System (Life Technologies). Information on all primers and probes used for qPCR analysis are provided in Supplementary Table 10 and 11. Gene expression was determined relative to GAPDH using the […]. […]

H1-EPSCs = test: Requirement of individual culture components for hEPSCs (RT-qPCR, AP+ colony formation); assay type: cell-based, human; conditions: withdrawal from medium, human EPSCs
Experimental: as §3, §4

AXIN1 [3] = test: Western blot analysis of AXIN1 in human EPSCs; assay type: cell-based
Experimental: as §2

canonical Wnt signalling [4] = test: TOPflash luciferase assay in human EPSCs; assay type: cell-based
Experimental: as §1

[5] = test system: Dox-dependent porcine iPSCs; test: Dox removal from Dox-dependent porcine iPSCs; assay type: cell-based; conditions: upon Dox removal
Experimental: Germany Landrace and China TAIHU OCT4-TD-tomato [2] Porcine fetal fibroblasts (PFFs) were plated on gelatinized 15-cm tissue culture plates and cultured in M20 media. They were trypsinized with 0.25% trypsin/EDTA solution (Gibco, Cat. No. 25500-054) and harvested for electroporation at 80% confluence. M20: knockout DMEM (Gibco, Cat. No. 10829-018), 20% FBS (Gibco, Cat. No. 10270), 1× Glutamine Penicillin-Streptomycin (Thermo Fisher Scientific, Cat. No. 11140-050) and 1×NEAA (Thermo Fisher Scientific, Cat. No. 10378-016). The transfections were performed using an Amaxa Nucleofector machine (Lonza) according to the manufacturer's protocol (NHDF Nucleofector® Kit, Cat. No. VPD-1001, program U-20). piggyBac transposition was used to achieve stable integration of reprogramming factors. The expression of the reprogramming factors was under the transcriptional control of the tetO2 tetracycline/doxycycline inducible promoter. 1.5 million PFFs and 6.0 μg DNA (2.0 μg PB-TRE-pOSCK, Porcine OCT4, SOX2, cMYC and KLF4; 1.0 μg PB-TRE-pNhL, 1.0 μg PB-TRE-hRL: human RARG and TRH1, 1.0 μg PB-EF1a-transposase and 1.0 μg PB-EF1a-rTTA) were used in each electroporation reaction. PB-TRE-pOSCK: cDNAs of porcine OCT4, SOX2, cMYC and KLF4 linked by 2A sequence were expressed as a single transcript from the tetO2 promoter. […]

canonical WNT activities (canonical Wnt signalling [1]; porcine EPSCs)	TOPflash activity (canonical Wnt signalling [1]; removing XAV939 from pEPSCM for 5 days)	canonical WNT activities (canonical Wnt signalling [4]; human EPSCs)	TOPflash activity (canonical Wnt signalling [4]; removing XAV939 from hEPSCM for 5 days)	SMILES	AXIN1 protein content (AXIN1 [2])	state of EPSCs on withdrawal of the compound (pEPSCs^Emb)	state of EPSCs on withdrawal of the compound (H1-EPSCs)	AXIN1 protein content (AXIN1 [3])	time to differentiation of iPSCs [5] [days]
reduced	substantially increased	reduced	substantially increased	Oc1nc(-c2ccc(C(F)(F)F)cc2)nc2c1CSCC2 [XAV939]	enhanced	collapse and differentiation	collapse and differentiation	enhanced	–
–	–	–	–	C[C@H]1c2cccc(O)c2C(=O)C2=C(O)[C@]3(O)C(=O)C(C(N)=O)=C(O)[C@@H](N(C)C)[C@@H]3[C@@H](O)[C@@H]21 [Dox, Doxycycline]	–	–	–	–	4 to 5
